These results are taken from patent US7053088B2, “Vanilloid receptor ligands and their use in treatments” (Amgen Inc., priority 2002, dated 2006).

Counter-ions that a name gives are not always drawn. Where only a bound is given, the exact number is not on record here.

Regarding `CC(C)(C)c1ccc(-c2cc(Nc3ccc4ncsc4c3)nc(N)n2)cc1.Cl` [N^4-Benzothiazol-6-yl-6-(4-tert-butylphenyl)pyrimidine-2,4-diamine hydrochloride], the melting point lay within 220 to 222 °C. Next, `FC(F)(F)c1ccc(-c2cc(Nc3ccc4ncccc4c3)ncn2)cc1` [Example 72]: 268 to 269 °C; `FC(F)(F)c1ccc(-c2cc(Nc3cccc4cccnc34)ncn2)cc1` [Example 73]: 162 to 163 °C; `Cc1ccccc1Nc1cc(-c2ccc(C(F)(F)F)cc2)ncn1` [Example 64]: 117 to 119 °C. The value for `FC(F)(F)c1ccc(-c2cc(Nc3ccc4cccnc4c3)ncn2)cc1` [Quinolyl-7-yl-[6-(4-trifluoromethylphenyl)pyrimidin-4-yl]amine] was 260 °C; that for `CC(C)(C)c1ccc(-c2cc(Nc3cnc4ccccc4c3)ncn2)cc1` [Example 47] was 227 to 229 °C; that for `COc1cccc(Nc2cc(-c3ccc(C(C)(C)C)cc3)ncn2)c1` [[6-(4-tert-butylphenyl)pyrimidin-4-yl]-(3-methoxyphenyl)amine] was 184 to 187 °C. Next, `CC(C)(C)c1ccc(-c2cc(Nc3ccc4cc[nH]c4c3)ncn2)cc1` [Example 48]: 194 to 196 °C; `CC(C)(C)c1ccc(-c2cc(Nc3ccc4c(c3)OCCO4)nc(N)n2)cc1` (as salt: hydrochloride) [[2-Amino-6-(4-tert-butylphenyl)pyrimidin-4-yl]-(2,3-dihydrobenzo[1,4]-dioxin-6-yl)amine hydrochloride]: 221 to 224 °C; `FC(F)(F)c1ccc(-c2cc(Nc3ccc4ccccc4c3)ncn2)cc1` [Example 70]: 212 to 213 °C. `Fc1ccc(-c2nnc(Nc3ccc4ncsc4c3)cc2-c2ccc(C(F)(F)F)cc2)cc1` [benzothiazol-6-yl-[6-(4-fluorophenyl)-5-(4-trifluoromethylphenyl)pyridazin-3-yl]amine]: the melting point worked out at 269 °C. Next, `FC(F)(F)c1ccc(-c2cc(Nc3ccccc3)ncn2)cc1` [phenyl-[6-(4-trifluoromethylphenyl)pyrimidin-4-yl]amine]: 184 to 186 °C; `CC(=O)Nc1nc2c(Nc3cc(-c4ccc(C(F)(F)F)cc4)ncn3)cccc2s1` [N-{4-[6-(4-Trifluoromethylphenyl)pyrimidin-4-ylamino]benzothiazol-2-yl}acetamide]: > 250 °C. The value for `FC(F)(F)c1ccc(-c2cc(Nc3ccc4c(c3)OCCO4)ncn2)cc1` [(2,3-dihydrobenzo[1,4]dioxin-6-yl)-[6-(4-trifluoromethylphenyl)pyrimidin-4-yl]amine] was 167 to 168 °C. The value for `FC(F)(F)c1ccc(-c2cc(Nc3ccc4c(n3)NCCC4)ncn2)cc1` [(5,6,7,8-tetrahydro[1,8]naphthyridin-2-yl)-[6-(4-trifluoromethylphenyl)pyrimidin-4-yl]amine] was 168 °C. The compound `FC(F)(F)c1ccc(-c2cc(Nc3cccc4[nH]ccc34)ncn2)cc1` [Example 43] had a melting point of 222 to 224 °C.

`CC(C)(C)c1ccc(-c2cc(Nc3ccc4[nH]ccc4c3)ncn2)cc1` [Example 54] had a melting point of 238 to 240 °C. The value for `CC(C)(C)c1ccc(-c2cc(Nc3ccc4ncsc4c3)nnc2-c2ccccc2)cc1` [Benzothiazol-6-yl-[5-(4-tert-butylphenyl)-6-phenylpyridazin-3-yl]amine] was 293 to 295 °C; that for `FC(F)(F)c1ccc(-c2cc(Nc3cccnc3Cl)ncn2)cc1` [(2-chloropyridin-3-yl)-[6-(4-trifluoromethylphenyl)pyrimidin-4-ylamine] was 134 to 135 °C; that for `CC(C)(C)c1ccc(-c2cc(Nc3ccc4[nH]ccc4c3)nnc2-c2ccccc2)cc1` [[5-(4-tert-Butylphenyl)-6-phenyl-pyridazin-3-yl]-(1H-indol-5-yl)-amine] was 138 to 140 °C. Consider `CC(C)(C)c1ccc(-c2cc(Nc3ccc4c(c3)CCCC4=O)ncn2)cc1` [6-[6-(4-tert-butylphenyl)pyrimidin-4-ylamino]-3,4-dihydro-2H-naphthalen-1-one], for which the melting point was 230 to 232 °C. The compound `Cc1ccc(Nc2cc(-c3ccc(C(F)(F)F)cc3)ncn2)cc1` [Example 60] displayed a melting point of 159 to 160 °C.

As for `CC(=O)N1CC(C)(C)c2ccc(Nc3cc(-c4ccc(C(F)(F)F)cc4)ncn3)cc21` [1-{3,3-Dimethyl-6-[6-(4-trifluoromethylphenyl)pyrimidin-4-ylamino]-2,3-dihydroindol-1-yl}ethanone], the melting point is 227 to 230 °C. The value for `FC(F)(F)c1ccc(-c2cc(Nc3cccc4ccccc34)ncn2)cc1` [Example 76] was 232 to 233 °C. The compound `Cc1ccc(Nc2cc(-c3ccc(C(F)(F)F)cc3)ncn2)cc1C` [(3,4-dimethylphenyl)-[6-(4-trifluoromethylphenyl)pyrimidin-4-yl]amine] showed a melting point of 154 to 156 °C. The value for `Nc1ccc2cccc(Nc3cc(-c4ccc(C(F)(F)F)cc4)ncn3)c2n1` [N^8-[6-(4-Trifluoromethylphenyl)pyrimidin-4-yl]quinoline-2,8-diamine] was 211 to 213 °C; that for `CS(=O)(=O)c1cccc(Nc2cc(-c3ccc(C(F)(F)F)cc3)ncn2)c1` [(3-Methanesulfonylphenyl)-[6-(4-trifluoromethylphenyl)pyrimidin-4-yl]amine] was 204 to 205 °C.

For the compound `Cc1cc(O)nc2cc(Nc3cc(-c4ccc(C(F)(F)F)cc4)ncn3)ccc12.Cl` [4-Methyl-7-{[6-(4-trifluoromethylphenyl)pyrimidin-4-yl]amino}quinolin-2-ol, hydrochloride], the melting point is 373 °C (dec.).

Turning to `Cc1ccc(Cl)cc1Nc1cc(-c2ccc(C(F)(F)F)cc2)ncn1` [Example 65], the melting point was in the range of 144 to 146 °C. The value for `FC(F)(F)c1ccc(-c2cc(Nc3ccc4ncsc4c3)nnc2Cl)cc1` [Benzothiazol-6-yl-[6-chloro-5-(4-trifluoromethylphenyl)pyridazin-3-yl]amine] was 206.3 °C (dec.); that for `FC(F)(F)c1ccc(-c2cc(Nc3cccc4ccc(Cl)nc34)ncn2)cc1` [(2-Chloroquinolin-8-yl)-[6-(4-trifluoromethylphenyl)pyrimidin-4-yl]amine] was 240 °C. The value for `Nc1nc2c(Nc3cc(-c4ccc(C(F)(F)F)cc4)ncn3)cccc2s1` [N^4-[6-(4-Trifluoromethylphenyl)pyrimidin-4-yl]benzothiazole-2,4-diamine] was 225 to 227 °C. Next, `COc1ccc(Nc2cc(-c3ccc(C(F)(F)F)cc3)ncn2)cn1` [(6-methoxypyridin-3-yl)-[6-(4-trifluoromethylphenyl)pyrimidin-4-yl]amine]: 123 to 127 °C; `CC(C)(C)c1ccc(-c2cc(Nc3cccc4[nH]ccc34)ncn2)cc1` [Example 46]: 241 to 242 °C. For `CC(=O)Nc1ccc(Nc2cc(-c3ccc(C(F)(F)F)cc3)ncn2)cc1` [Example 66], the melting point lay in the range of 236 to 238 °C. Next, `FC(F)(F)c1ccc(-c2cc(Nc3ccc4scnc4c3)ncn2)cc1` [Benzothiazol-5-yl-[6-(4-trifluoromethylphenyl)pyrimidin-4-yl]amine]: 192.1 to 192.2 °C; `FC(F)(F)c1ccc(-c2cc(Nc3cnc4ccccc4c3)ncn2)cc1` [Example 50]: 262 to 263 °C; `COc1ccc2ccc(Nc3cc(-c4ccc(C(F)(F)F)cc4)ncn3)cc2n1` [(2-Methoxyquinolin-7-yl)-[6-(4-trifluoromethylphenyl)pyrimidin-4-yl]amine]: 199 °C. The value for `FC(F)(F)c1ccc(-c2cc(Nc3ccc(Cl)cc3)ncn2)cc1` [(4-chlorophenyl)-[6-(4-trifluoromethylphenyl)pyrimidin-4-yl]amine] was 193 to 196 °C; that for `CC(C)(C)c1ccc(-c2cc(Nc3ccc4c(c3)OCCO4)ncn2)cc1` [[6-(4-tert-Butylphenyl)pyrimidin-4-yl]-(2,3-dihydrobenzo[1,4]dioxin-6-yl)amine] was 199 to 202 °C; that for `Oc1ccc2ccc(Nc3cc(-c4ccc(C(F)(F)F)cc4)ncn3)cc2n1` [7-[6-(4-Trifluoromethylphenyl)pyrimidin-4-ylamino]quinolin-2-ol] was 337 °C (dec.).

The compound `FC(F)(F)c1ccc(-c2cc(Nc3cccc4ncccc34)ncn2)cc1` [Example 74] returned a melting point of 238 to 239 °C. Regarding `Cc1c(Cl)cccc1Nc1cc(-c2ccc(C(F)(F)F)cc2)ncn1` [Example 57], the melting point fell in the range of 148 to 150 °C. The value for `COc1ccc(-c2nnc(Nc3ccc4cccnc4c3)cc2-c2ccc(C(F)(F)F)cc2)cc1` [Example 89, [6-(4-Methoxyphenyl)-5-(4-trifluoromethylphenyl)pyridazin-3-yl]-[quinolin-7-yl]amine] was 215 to 217 °C; that for `FC(F)(F)c1ccc(-c2cc(Nc3ccc4[nH]ncc4c3)ncn2)cc1` [(1H-indazol-5-yl)-[6-(4-trifluoromethylphenyl)pyrimidin-4-yl]amine] was 224 to 226 °C; that for `FC(F)(F)c1ccc(-c2cc(Nc3ccc(Cl)c(Cl)c3)ncn2)cc1` [(3,4-dichlorophenyl)-[6-(4-trifluoromethylphenyl)pyrimidin-4-yl]amine] was 178 to 180 °C. Take `FC(F)(F)c1ccc(-c2cc(Nc3ccc(Cl)c(C(F)(F)F)c3)ncn2)cc1` [(4-chloro-3-trifluoromethylphenyl)-[6-(4-trifluoromethylphenyl)pyrimidin-4-yl]amine]: the melting point is 172 to 175 °C. With `FC(F)(F)c1ccc(-c2cc(Nc3ccc4ncsc4c3)nnc2-c2ccc(C(F)(F)F)cc2)cc1` [benzothiazol-6-yl-[5,6-bis-(4-trifluoromethylphenyl)pyridazin-3-yl]amine], the melting point worked out at 243 °C. Next, `Cc1nc2cc(Nc3cc(-c4ccc(C(F)(F)F)cc4)ncn3)ccc2s1` [(2-methylbenzothiazol-5-yl)-[6-(4-trifluoromethylphenyl)pyrimidin-4-yl]amine]: 219.5 to 220.5 °C.
